pIC50: −log10 of the molar value.
Experiments:
IDO [1] = molecular target: T1, IDO (Homo sapiens, UniProt P14902); details: J F Reinhard et al., 1996, read-out: IC50 (affinity to IDO); cited from earlier work
Target sequence in this assay (P14902 whole entry, species assumed): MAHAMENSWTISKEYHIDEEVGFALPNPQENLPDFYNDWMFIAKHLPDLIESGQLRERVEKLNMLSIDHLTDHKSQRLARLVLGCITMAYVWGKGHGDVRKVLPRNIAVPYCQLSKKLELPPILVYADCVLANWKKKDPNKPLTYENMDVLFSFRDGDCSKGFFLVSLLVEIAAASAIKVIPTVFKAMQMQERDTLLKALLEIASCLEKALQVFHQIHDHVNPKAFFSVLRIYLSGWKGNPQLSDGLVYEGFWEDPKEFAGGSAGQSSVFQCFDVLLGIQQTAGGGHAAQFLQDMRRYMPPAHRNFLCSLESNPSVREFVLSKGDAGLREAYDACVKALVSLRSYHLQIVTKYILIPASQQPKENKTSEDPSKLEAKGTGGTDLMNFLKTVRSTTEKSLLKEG

IDO [2] = molecular target: T1, IDO; assay: Tryptophan degradation and kynurenin production by 293-E cells transfected with human IDO, HPLC of supernatant; type: cell-based; set-up: expressed in transfected cells; host or cells: human 293-EBNA (293-E) cells; details: 293-E hIDO cells, overnight, HBSS with 25 μM tryptophan, increasing inhibitor concentrations (FIG. 4)
Description: FIG. 4. Line graphs depicting concentrations of tryptophan and kynurenine in culture supernatants of different transfected cells. Control human 293-EBNA cells (293-E) (FIG. 4A), 293-E cells transfected with human IDO (293-E hIDO) (FIG. 4B) or human 293-E cells transfected with human TDO2 (293-E hTDO) (FIG. 4C) were incubated overnight (4×10^5 cells/2000) in Hank's balanced Salt solution (HBSS) supplemented with 25 μM tryptophan and increasing concentrations of the 680C91 inhibitor compound ([inh]). The concentrations (μM) of tryptophan ([Trp], ⋄) and kynurenin ([Kyn], □) were measured by HPLC in the supernatant.
A TDO inhibitor, 680C91, was described in Salter, M., R. Hazelwood, C. I. Pogson, R. Iyer, and D. J. Madge. 1995. Biochem. Pharmacol. 49:1435-1442. We synthesized this compound and tested its capacity to block tryptophan degradation by human 293 cells transfected with TDO2.
Target sequence in this assay (P14902 whole entry): as the sequence (P14902 whole entry, species assumed) above

[3] = molecular target: T2, TDO2 in Head and Neck carcinoma cell line 2720 (SENY) (Homo sapiens, UniProt P48775); assay: Tryptophan consumption and kynurenine production by Head and Neck carcinoma cell line 2720 (SENY), HPLC of supernatant; type: cell-based; details: at 20 μM; SENY cells, overnight, HBSS with 50 μM tryptophan
T2 construct: To confirm the expression of enzymatically active TDO2, we used Head and Neck carcinoma cell line 2720 (SENY); endogenous in cells; host or cells: Head and Neck carcinoma cell line 2720 (SENY)
Description: FIG. 5. A bar graph depicting tryptophan consumption and kynurenine production in head and neck carcinoma cell line 2720 (SENY) in the presence or absence of the TDO-specific inhibitor 680C91 or the IDO inhibitor mb.
To confirm the expression of enzymatically active TDO2, we used Head and Neck carcinoma cell line 2720 (SENY), which expresses 12.7 molecules of TDO2 mRNA/cell. We measured tryptophan consumption and kynurenine production in the supernatant of 5×10^5 cells incubated overnight in 2 ml of HBSS containing 50 μM tryptophan. Tryptophan and kynurenine concentrations were measured by HPLC using standard methods.
See FIG. 5 for results of this assay. To confirm that the tryptophan-degrading activity was due to TDO, TDO-specific inhibitor 680C91 was included at 5 μM or 20 μM. As control, an IDO inhibitor (mb) was also used at 5 μM or 20 μM. A tryptophan-degrading activity was detected and was clearly observed by looking at the production of kynurenine: 11 μM as compared to 0 in the control without cells. This activity was mostly attributable to TDO, as it was blocked by the TDO-specific inhibitor 680C91 (50% inhibition at 20 μM).

human TDO2 = molecular target: T3, human TDO2 (Homo sapiens, UniProt P48775); assay: Tryptophan degradation and kynurenin production by 293-E cells transfected with human TDO2, HPLC of supernatant; type: cell-based; details: 293-E hTDO cells, overnight, HBSS with 25 μM tryptophan, increasing inhibitor concentrations (FIG. 4)
T3 construct: expressed in transfected cells; host or cells: human 293-EBNA (293-E) cells
T3 sequence (P48775 whole entry): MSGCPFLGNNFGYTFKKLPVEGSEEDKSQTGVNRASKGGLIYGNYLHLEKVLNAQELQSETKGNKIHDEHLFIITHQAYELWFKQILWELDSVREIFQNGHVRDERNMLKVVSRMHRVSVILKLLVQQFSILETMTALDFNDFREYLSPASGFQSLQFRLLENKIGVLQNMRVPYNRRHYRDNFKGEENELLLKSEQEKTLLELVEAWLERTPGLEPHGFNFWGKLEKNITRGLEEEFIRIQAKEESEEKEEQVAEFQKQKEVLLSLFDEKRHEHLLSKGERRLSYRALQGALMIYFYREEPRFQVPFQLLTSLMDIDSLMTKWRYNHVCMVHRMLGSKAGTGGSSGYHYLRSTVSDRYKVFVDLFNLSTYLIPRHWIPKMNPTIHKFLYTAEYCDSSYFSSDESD

T2 sequence (P48775 whole entry): as above

Row | block of tryptophan degradation and kynurenin production by IDO-expressing cells (IDO [2]) | inhibition of tryptophan-degrading activity (kynurenine production) [3] [%] | block of tryptophan degradation and kynurenin production by TDO-expressing cells (human TDO2) | SMILES | pIC50 (IDO [1])
1 |  |  |  | C(=C\c1c[nH]c2ccccc12)/c1ccncc1 [540C91, (E)-3-[2-(4′-pyridyl)-vinyl]-1H-indole] | 2.94
2 | failed to block | 50 | efficiently blocked | Fc1ccc2c(/C=C/c3cccnc3)c[nH]c2c1 [680C91, (E)-6-fluoro-3-[2-(3-pyridyl)vinyl]-1H-indole] | 
